pIC50: −log10 of the molar value.
Experiments:
TrkA = molecular target: T1, TrkA (Homo sapiens, UniProt P04629); experiment: TrkA inhibitory activity, CycLex TrkA kinase assay/inhibitor screening kit; assay type: biochemical; conditions: for inhibition at 1 µM: compound 1 μM, read-out: % inhibition rate (based on 1 μM)
T1 construct: purchased MBL International (CycLex) CY-1091
Method: The TrkA inhibitory activity of the compounds was evaluated using CycLex® TrkA kinase assay/inhibitor screening kit of MBL International (Cat No. CY-1091). The test was carried out according to the analysis method provided by the manufacturer. The test method is as follows.
1. 1× wash buffer was prepared by diluting 10× wash buffer in ddH2O.
2. 20×ATP solution (1.25 mM) was prepared by adding 1.6 mL of distilled water to the tube containing ATP dissolved in NA2 salt and freeze-dried.
4. A working solution mixture and a solution of the appropriate concentration of the example compound to evaluate the activity of the example compound were prepared and dispensed into a 96-well plate as shown in table below.
5. After dispensing the solutions into a 96-well plate, the plate was incubated at 30° C. for 30 minutes.
6. After incubation of the plate at 30° C. for 30 minutes, 200 μL of 1× wash buffer was added into each well of the plate, followed by washing. This process was repeated 5 times.
7. After washing the plate, 100 μL of HRP conjugated detection antibody (PX-39) was added into each well of the plate, followed by reaction at room temperature for 60 minutes.
8. Upon completion of the reaction, 200 μL of 1× wash buffer was added into each well of the plate, followed by washing. This process was repeated 5 times.
9. After washing the plate, 100 μL of substrate reagent containing chromogenic substrate and tetra-methylbenzidine (TMB) was added into each well of the plate, followed by incubation at room temperature for 5-15 minutes.
10. Upon completion of the reaction, 100 μL of stop solution (1 N H2SO4) was added into each well of the plate, followed by measuring OD450 within 30 minutes.

TrkB = molecular target: T2, TrkB (Homo sapiens, UniProt Q16620); experiment: PathHunter eXpress TrkB functional assay kit (U2OS cells, agonist BDNF); assay type: cell-based; conditions: compound 1 μM, read-out: TrkB % inhibition rate (based on 1 μM)
T2 construct: host or cells: U2OS
T2 sequence (Q16620 32-822): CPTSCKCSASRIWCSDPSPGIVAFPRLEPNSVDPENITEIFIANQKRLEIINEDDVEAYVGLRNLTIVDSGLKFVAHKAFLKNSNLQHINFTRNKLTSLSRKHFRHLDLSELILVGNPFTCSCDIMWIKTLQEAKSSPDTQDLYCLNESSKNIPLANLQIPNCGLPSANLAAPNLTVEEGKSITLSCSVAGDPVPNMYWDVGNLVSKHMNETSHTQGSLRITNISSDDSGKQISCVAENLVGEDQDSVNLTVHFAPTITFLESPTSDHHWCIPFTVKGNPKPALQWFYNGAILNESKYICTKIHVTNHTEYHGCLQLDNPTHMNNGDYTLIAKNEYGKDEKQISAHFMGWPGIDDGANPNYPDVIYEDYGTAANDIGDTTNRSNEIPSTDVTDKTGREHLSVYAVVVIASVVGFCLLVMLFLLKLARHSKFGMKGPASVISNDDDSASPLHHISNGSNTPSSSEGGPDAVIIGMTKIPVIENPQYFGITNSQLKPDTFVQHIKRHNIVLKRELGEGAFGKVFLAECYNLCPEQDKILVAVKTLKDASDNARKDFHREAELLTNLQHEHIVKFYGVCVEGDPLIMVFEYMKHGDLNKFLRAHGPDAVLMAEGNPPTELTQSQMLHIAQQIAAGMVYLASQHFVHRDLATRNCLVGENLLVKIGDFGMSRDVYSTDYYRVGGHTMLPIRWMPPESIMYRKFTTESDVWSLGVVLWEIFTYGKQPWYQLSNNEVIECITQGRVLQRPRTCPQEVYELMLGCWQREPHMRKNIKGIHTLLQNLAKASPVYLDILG
Method: (§1) The inhibitory activity of the example compounds against TrkB and TrkC was evaluated using PathHunter® eXpress TrkB or TrkC functional assay kit (Product Code: 93-0463E3 and 93-0464E3) of DiscoverX. The test was carried out according to the analysis method provided by the manufacturer. The test was carried out as follows over 2 or 3 days depending on the conditions of cells.
(§2) 1. Before starting the experiment, the cell plating (CP) reagent stored at −80° C. was dissolved in a 37° C. water bath.
(§3) 2. When the CP reagent was dissolved, cell vials for TrkB or TrkC were prepared to be dissolved.
(§4) 3. Two U2OS cell vials (TrkB kit & TrkC kit) stored in liquid nitrogen were thawed.
(§5) 4. 500 μL of CP reagent was added to the thawed cell vial, and the cells were sufficiently mixed by pipetting and transferred to a Conical tube in which 11.5 mL of CP reagent was dispensed.
(§6) 5. 12 mL cells (1×10^6 cells in CP reagent) were seeded on a 96-well tissue culture treated plate (100 μL/well), followed by culture in a 37° C., 5% CO2 humidified incubator for 24 hours or 48 hours.
(§7) Day 2 or Day 3: Treatment of Test Material
(§8) 1. Test material, agonist and antagonist were prepared as stock solutions according to the experiment design. • Test material: 10 mM Stock solution in DMSO • Antagonist (GNF-5837): 10 mM Stock solution in 1.8674 mL DMSO • Agonist: TrkB agonist→BDNF, TrkC agonist→NT-3
(§9) 2. 10 mM stock solutions of teat material and antagonist having the concentration of 22 times more concentrated than the final screening concentration were prepared according to the experiment design.
(§10) 3. Each well of the 96-well culture plate containing cells was treated with 5 μL of the solutions of teat material and antagonist having the concentration of 22 times more concentrated than the final screening concentration (#2), followed by incubation at 37° C. for 60 minutes.
(§11) 4. During the incubation, 10 μg/mL stock solution of each agonist for TrkB and TrkC was prepared using a reconstitution buffer for the purpose of the experiment, and each well of the plate was treated with 5 μL of the prepared solution, followed by incubation at 19-25° C. for 3 hours.
(§12) 5. During the incubation, a detection reagent working solution (4.75 ml Cell assay buffer, 1.25 ml Substrate Reagent 1, 0.25 ml Substrate Reagent 2) was prepared. Upon completion of the incubation, 55 μL of the working solution was added into each well of the plate.
(§13) 7. The plate was incubated at room temperature for 60 minutes in a dark place, and the […] was measured with a luminescence plate reader.

TrkC = molecular target: T3, TrkC (Homo sapiens, UniProt Q16288); experiment: PathHunter eXpress TrkC functional assay kit (U2OS cells, agonist NT-3); assay type: cell-based; conditions: for inhibition at 1 µM: compound 1 μM, read-out: TrkC % inhibition rate (based on 1 μM)
T3 construct: host or cells: U2OS
T3 sequence (Q16288 32-839): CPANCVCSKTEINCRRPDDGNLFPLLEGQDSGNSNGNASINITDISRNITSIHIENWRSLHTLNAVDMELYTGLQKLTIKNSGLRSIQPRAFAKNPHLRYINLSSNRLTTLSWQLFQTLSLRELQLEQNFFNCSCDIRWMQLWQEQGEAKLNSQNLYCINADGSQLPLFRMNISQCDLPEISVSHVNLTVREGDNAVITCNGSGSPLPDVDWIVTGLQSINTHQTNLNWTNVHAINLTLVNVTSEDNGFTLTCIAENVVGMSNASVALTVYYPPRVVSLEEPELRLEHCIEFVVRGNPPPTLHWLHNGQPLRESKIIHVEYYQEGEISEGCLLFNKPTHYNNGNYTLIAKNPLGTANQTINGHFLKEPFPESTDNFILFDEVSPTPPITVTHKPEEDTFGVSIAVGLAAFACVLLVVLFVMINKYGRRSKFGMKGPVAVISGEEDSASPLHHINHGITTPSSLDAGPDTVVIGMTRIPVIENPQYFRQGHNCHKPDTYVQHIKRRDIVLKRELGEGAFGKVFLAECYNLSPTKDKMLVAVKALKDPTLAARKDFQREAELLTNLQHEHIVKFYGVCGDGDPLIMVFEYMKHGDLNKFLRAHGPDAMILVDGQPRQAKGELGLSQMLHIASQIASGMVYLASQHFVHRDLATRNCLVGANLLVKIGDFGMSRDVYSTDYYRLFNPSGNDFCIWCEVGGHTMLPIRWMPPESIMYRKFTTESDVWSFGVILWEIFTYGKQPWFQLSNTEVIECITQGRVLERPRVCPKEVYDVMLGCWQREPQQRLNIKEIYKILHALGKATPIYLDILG
Method: as §1, §2, §3, §4, §5, §6, §7, §8, §9, §10, §11, §12, §13

[1] = system: postoperative pain animal model; experiment: Pharmacological activity in postoperative pain model (von-Frey mechanical allodynia, 50% withdrawal threshold); assay type: in vivo, Sprague-Dawley male rats; conditions: oral, rat postoperative pain model, 2 days after surgery; for ED50: 48 h, read-out: ED50
Method: Sprague-Dawley male rats weighing around 150 g (Orient bio., Korea) were used. Rats were raised in an environment where a 12-hour light-dark cycle was maintained, 4 per transparent plastic cage covered with scob as bedding. Food and water were provided freely. To verify the analgesic effect of the example compounds, all rats were anesthetized with O2 delivered from the induction chamber at a ratio of 3:3 of isoflurane and operated. Anesthetized rats were placed on a 37° C. warm plate to prevent hypothermia during the operation. The ipsilateral sole (left) of the hind paw of the experimental animal was disinfected with 10% povidone-iodine solution, and incised to a length of 1 cm with a #11 surgical knife. The incision was made starting from 0.5 cm of the proximal edge of the heel through the skin and fascia on the side of the ipsilateral sole toward the toe. After the incision, a gentle pressure was applied to the incision site to stop the bleeding and the skin was sutured. The surgical site was sterilized with 10% povidone-iodine solution, and gentamicin (8 mg/kg) was administered intraperitoneally to prevent infection. The analgesic effect of the compound on postoperative pain was evaluated in the experimental animals 2 days after the surgery. […] The formula for calculating the 50% withdrawal threshold (g) is as follows. 50% Withdrawal threshold (g)=(10^(x+kd))/10^4 [Mathematical Formula 1] • x=the value of the last tested filament (log unit value). • k=the value indicating positive/negative reaction by up-down method. • d=the value fixed at 0.224 as the average difference between stimuli.

T1 sequence (P04629 33-796): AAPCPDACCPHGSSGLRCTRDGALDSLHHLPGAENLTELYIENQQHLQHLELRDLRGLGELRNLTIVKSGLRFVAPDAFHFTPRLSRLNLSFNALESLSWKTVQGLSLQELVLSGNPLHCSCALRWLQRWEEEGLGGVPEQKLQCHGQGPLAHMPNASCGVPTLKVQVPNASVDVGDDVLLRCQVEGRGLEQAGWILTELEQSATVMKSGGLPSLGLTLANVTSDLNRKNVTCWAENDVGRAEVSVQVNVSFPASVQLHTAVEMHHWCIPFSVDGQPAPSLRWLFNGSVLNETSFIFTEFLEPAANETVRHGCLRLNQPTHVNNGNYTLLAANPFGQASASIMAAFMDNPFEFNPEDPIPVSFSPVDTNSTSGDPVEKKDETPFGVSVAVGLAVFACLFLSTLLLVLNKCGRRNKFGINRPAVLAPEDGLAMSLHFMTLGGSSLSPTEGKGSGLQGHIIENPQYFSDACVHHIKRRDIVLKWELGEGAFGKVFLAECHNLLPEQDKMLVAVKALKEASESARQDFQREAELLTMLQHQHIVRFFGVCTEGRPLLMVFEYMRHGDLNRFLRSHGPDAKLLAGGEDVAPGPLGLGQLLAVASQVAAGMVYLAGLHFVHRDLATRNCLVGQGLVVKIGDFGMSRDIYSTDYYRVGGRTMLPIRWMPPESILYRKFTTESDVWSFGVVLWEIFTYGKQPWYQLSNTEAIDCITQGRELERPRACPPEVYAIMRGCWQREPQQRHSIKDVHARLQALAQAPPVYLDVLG

inhibition at 1 µM (TrkA)	inhibition at 1 µM (TrkB)	inhibition at 1 µM (TrkC)	pIC50 (TrkA)	pIC50 (TrkC)	SMILES	ED50 [1]	Maximum duration of drug efficacy [1]
95%	4%	-16%	–	–	Oc1c(Cl)cc(-c2c[nH]c3ncnc(-c4cnn(C5CCNCC5)c4)c23)cc1Cl [Example 15, 2,6-dichloro-4-(4-(1-(piperidine-4-yl)-1H-pyrazole-4-yl)-7H-pyrrolo[2,3-d]pyrimidine-5-yl)phenol]	20.1 mg/kg	0.5 h
101%	-8%	-20%	6.91	–	CN1CCN(c2ccc(C(=O)Nc3n[nH]c4ncc(Br)cc34)cc2)CC1 [Example 14, N-(5-bromo-1H-pyrazolo[3,4-b]pyridine-3-yl)-4-(4-methylpiperazine-1-yl)benzamide]	3.8 mg/kg	0.5 h
99%	-1%	0%	6.75	–	CN1CCN(c2ccc(C(=O)Nc3n[nH]c4ncc(-c5ccncc5)cc34)cc2)CC1 [Example 13, 4-(4-methylpiperazine-1-yl)-N-(5-(pyridine-4-yl)-1H-pyrazolo[3,4-b]pyridine-3-yl)benzamide]	11.5 mg/kg	1.0 h
98%	27%	49%	6.67	5.97	CN1CCN(c2ccc(C(=O)Nc3n[nH]c4ncc(-c5ccccc5)cc34)cc2)CC1 [Example 10, 4-(4-methylpiperazine-1-yl)-N-(5-phenyl-1H-pyrazolo[3,4-b]pyridine-3-yl)benzamide]	3.8 mg/kg	0.5 h

— patent US12195467B2, “Compound having TrkA inhibitory activity and pharmaceutical composition, for preventing or alleviating pain, containing same as active ingredient” (JBKLAB CO., LTD., priority 2018, dated 2025)
